Results from paper PMC7558535, “In Vitro Metabolism of DWP16001, a Novel Sodium-Glucose Cotransporter 2 Inhibitor, in Human and Animal Hepatocytes” (Pharmaceutics, 2020).

Legend:
Type in all cases: in vitro ADME
[1] = molecular target: T1, UGT2B7 (Homo sapiens, UniProt P16662); assay: UGT screening, cDNA-expressed UGT2B7
T1 construct: purchased Corning Life Sciences
T1 sequence (P16662 24-529): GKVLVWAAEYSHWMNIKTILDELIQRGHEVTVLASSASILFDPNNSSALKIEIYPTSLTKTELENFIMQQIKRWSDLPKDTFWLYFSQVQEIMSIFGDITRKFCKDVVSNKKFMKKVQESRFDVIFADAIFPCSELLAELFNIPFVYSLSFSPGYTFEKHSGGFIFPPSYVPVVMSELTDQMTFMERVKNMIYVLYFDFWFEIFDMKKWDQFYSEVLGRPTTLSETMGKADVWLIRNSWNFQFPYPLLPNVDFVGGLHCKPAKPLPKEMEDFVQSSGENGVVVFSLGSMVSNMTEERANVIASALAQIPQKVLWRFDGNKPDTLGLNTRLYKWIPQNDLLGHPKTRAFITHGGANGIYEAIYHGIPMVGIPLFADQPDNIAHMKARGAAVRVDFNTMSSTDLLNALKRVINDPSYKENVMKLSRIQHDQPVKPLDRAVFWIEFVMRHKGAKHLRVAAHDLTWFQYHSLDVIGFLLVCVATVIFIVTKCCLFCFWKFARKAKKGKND
Method: To screen for UGT enzymes responsible for glucuronidation of DWP16001, 100 μL of reaction mixtures containing 13 human cDNA-expressed UGT enzymes (1A1, 1A3, 1A4, 1A6, 1A7, 1A8, 1A9, 1A10, 2B4, 2B7, 2B10, 2B15, and 2B17) at 0.1 mg protein/mL, 5 mM UDPGA, 0.025 mg/mL alamethicin, and 25 μM DWP16001 or M1 in 50 mM Tris buffer (pH 7.4) were incubated at 37 °C for 30 min in triplicate. Reactions were stopped by adding 100 μL of ketoconazole (internal standard, 200 ng/mL) in acetonitrile, followed by vortex-mixing and centrifugation (15,000× g, 8 min, 4 °C). The supernatant (75 μL) was diluted with equal volume of 30% acetonitrile and aliquots (5 μL) were injected into an LC-MS/MS system.

[2] = molecular target: T2, CYP3A4 (Homo sapiens, UniProt P08684); assay: Immunoinhibition of DWP16001 metabolism by anti-CYP3A4 antibody in human liver microsomes; conditions: 5 μM DWP16001, pooled human liver microsomes
T2 construct: purchased Corning Life Sciences
Method: DWP16001 (5 μM) in human liver microsomes was incubated with varying concentrations of antibody specific for human CYP3A4 (anti-CYP3A4 antibody). Prior to incubation, human liver microsomes were pretreated with anti-CYP3A4 antibody for 15 min on ice. Reactions were initiated by addition of an aliquot of NADPH-generating system; mixtures were incubated for 60 min at 37 °C. Reactions were terminated by addition of 100 µL of ice-cold ketoconazole (200 ng/mL) in acetonitrile; following centrifugation at 15,000× g for 10 min at 4 °C. Aliquots of supernatant (150 µL) was evaporated using a vacuum concentrator and re-dissolved in 100 µL of 20% methanol; 5 µL aliquots were injected into an LC-MS/MS system.

[3] = Metabolic stability in monkey hepatocytes; conditions: pooled cryopreserved hepatocytes, monkey hepatocytes
Method: (§1) To evaluate the metabolic stability of DWP16001 in human, dog, monkey, mouse, and rat hepatocytes, pooled cryopreserved hepatocytes were carefully thawed in recovery medium and resuspended in incubation medium (Krebs–Henseleit buffer for mouse, rat, and human; William’s E media for dog and monkey) to 0.5 × 10^6 cells/mL for mouse, 0.67 × 10^6 cells/mL for rat, and 1.0 × 10^6 cells/mL for dog, monkey, and human in accordance with the manufacturer’s protocols. Then, 60-μL aliquots of these hepatocyte suspensions and an equal volume of 2 μM DWP16001 in incubation medium were mixed in 96-well plates and incubated in triplicate for 0, 30, 60, 90, 120, 180, or 240 min in a CO2 incubator at 37 °C. Reactions were stopped by addition of 120 µL of ice-cold acetonitrile to each well and the cell suspension was sonicated for 5 min at 4 °C, followed by centrifugation at 15,000× g for 10 min at 4 °C after 5 min of sonication. 80-µL aliquots of the supernatants were then vortex-mixed with 20 μL of ice-cold ketoconazole (an internal standard) in acetonitrile and analyzed by LC–tandem mass spectrometry (LC-MS/MS). The peak area ratios of DWP16001 versus internal standard at each sampling point were used for the subsequent calculation. Elimination parameters, including half-life (t1/2), intrinsic clearance (Clint), and hepatic clearance (Clhep) of DWP16001 in mouse, rat, dog, monkey, and human were calculated by the following equations [19]. (1) t1/2min=ln2/−k elimination slope (2) ClintmL/min/kg=ln2/t1/2×mL incubation/hepatocytes 10^6 cells×B×10^6 cells/g liver×A g liver/kg BW (3) ClhepmL/min/kg=Qh×Clint/Qh+Clint (4) Hepatic extraction ratio = Clhep/Qh
(§2) Here, A has values of 87.5, 40, 32, 32, and 25.7; B has values of 135, 117, 215, 120, and 139; Qh (representing hepatic blood flow) has values of 90, 55.2, 30.9, 43.4, and 20.7 mL/min/kg, for mouse, rat, dog, monkey, and human, respectively. Hepatic extraction ratio values of ≤ 0.25, 0.25–0.75, and ≥ 0.75 were regarded as low, moderate, and high, respectively.

[4] = system: monkey hepatocytes; assay: Metabolic stability in monkey hepatocytes
Method: as §1, §2

[5] = system: human hepatocytes; assay: Metabolic stability in human hepatocytes
Method: as §1, §2

[6] = Metabolic stability in human hepatocytes; conditions: pooled cryopreserved hepatocytes
Method: as §1, §2

[7] = Metabolic stability in rat hepatocytes; conditions: pooled cryopreserved hepatocytes
Method: as §1, §2

[8] = system: rat hepatocytes; assay: Metabolic stability in rat hepatocytes
Method: as §1, §2

T2 sequence (P08684 whole entry): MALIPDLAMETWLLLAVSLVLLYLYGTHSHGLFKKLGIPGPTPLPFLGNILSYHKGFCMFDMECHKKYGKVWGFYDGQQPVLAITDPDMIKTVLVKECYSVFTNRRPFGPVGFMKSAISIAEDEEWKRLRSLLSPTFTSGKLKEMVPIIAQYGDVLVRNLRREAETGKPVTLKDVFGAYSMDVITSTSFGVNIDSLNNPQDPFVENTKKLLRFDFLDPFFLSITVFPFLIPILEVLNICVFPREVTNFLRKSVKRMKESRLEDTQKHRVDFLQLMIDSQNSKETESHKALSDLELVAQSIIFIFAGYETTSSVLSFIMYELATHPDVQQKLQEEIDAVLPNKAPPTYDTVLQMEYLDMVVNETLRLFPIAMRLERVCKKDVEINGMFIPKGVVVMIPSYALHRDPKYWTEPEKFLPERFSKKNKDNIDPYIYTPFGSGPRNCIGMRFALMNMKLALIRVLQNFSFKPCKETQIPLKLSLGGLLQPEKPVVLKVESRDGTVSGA

For `OC[C@H]1O[C@@H](c2cc(Cc3ccc(C4CC4)cc3)c(Cl)c3c2CCO3)[C@H](O)[C@@H](O)[C@@H]1O` [DWP16001, (2S,3R,4R,5S,6R)-2-(7-chloro-6-(4-cyclopropylbenzyl)-2,3-dihydrobenzofuran-4-yl)-6-(hydroxymethyl)tetrahydro-2H-pyran-3,4,5-triol], the “Substrate of UGT2B7” value [1] was “substrate”, the “Formation of M1 and M2 from DWP16001 with increasing anti-CYP3A4 antibody” value [2] was “decreased” and the CLint scaled at 1 μM [3] was 1.94 L/h/kg. The half-life at 1 μM ([3]; 37 °C, 0-240 min) was 2.75 h, the “Hepatic extraction ratio class” value ([4]; monkey) was “moderate (0.25–0.75)” and the Hepatic extraction ratio ([4]; monkey hepatocytes) was 0.43. For the same molecule, the Clhep ([4]; monkey hepatocytes, well-stirred model) was 1.11 L/h/kg, the Hepatic extraction ratio [5] was 0.22 and the “Hepatic extraction ratio class” value [5] was “low (Hepatic extraction ratio values of ≤ 0.25)”. For the same molecule, the Clhep ([5]; well-stirred model) was 0.27 L/h/kg, the CLint scaled at 1 μM [6] was 0.342 L/h/kg and the half-life at 1 μM ([6]; 37 °C, 0-240 min) was 14.4 h. For the same molecule, the CLint scaled at 1 μM [7] was 0.588 L/h/kg, the half-life at 1 μM ([7]; 37 °C, 0-240 min) was 16.5 h and the Hepatic extraction ratio [8] was 0.15. The “Hepatic extraction ratio class” value [8] was “low (Hepatic extraction ratio values of ≤ 0.25)” and the Clhep ([8]; well-stirred model) was 0.498 L/h/kg.
